Laboratory results taken from PMC8699473, “An Easily Expandable Multi-Drug LC-MS Assay for the Simultaneous Quantification of 57 Oral Antitumor Drugs in Human Plasma” (Cancers, 2021).

How the values were obtained:
[1] = set-up: method as in supplement references [1-55] as printed per drug; conditions: minimum steady-state blood plasma concentration after multiple dose administration; ref supplement references [1-55] per drug; cited from earlier work
[2] = Freeze-thaw stability in spiked pooled human plasma; assay type: physicochemical
[3] = Autosampler stability of ready for injection samples; assay type: physicochemical, human

SMILES	cmin [1] [ng/mL]	Freeze-Thaw Accuracy [%] ([2]; validation standard 2xLLOV)	Freeze-Thaw Accuracy [%] ([2]; validation standard LLOV)	Freeze-Thaw Accuracy [%] ([2]; validation standard MOV)	Freeze-Thaw Accuracy [%] ([2]; validation standard ULOV)	Autosampler (24h, 4°C) Accuracy [%] ([3]; validation standard 2xLLOV)	Autosampler (72h, 4°C) Accuracy [%] ([3]; validation standard 2xLLOV)	Autosampler (24h, 4°C) Accuracy [%] ([3]; validation standard LLOV)	Autosampler (72h, 4°C) Accuracy [%] ([3]; validation standard LLOV)	Autosampler (24h, 4°C) Accuracy [%] ([3]; validation standard MOV)	Autosampler (72h, 4°C) Accuracy [%] ([3]; validation standard MOV)	Autosampler (24h, 4°C) Accuracy [%] ([3]; validation standard ULOV)	Autosampler (72h, 4°C) Accuracy [%] ([3]; validation standard ULOV)
O=C(Nc1cnn2ccc(N3CCC[C@@H]3c3cc(F)ccc3F)nc12)N1CC[C@H](O)C1 [Larotrectinib]	5.14	100.6	97.9	100.3	102.3	87.6	100.3	79.4	75.5	104.6	101.2	102.3	104.4
Cc1cc(Nc2ncc(Cl)c(Nc3ccccc3S(=O)(=O)C(C)C)n2)c(OC(C)C)cc1C1CCNCC1 [Ceritinib]	871	96.9	99.9	97.6	97.5	95.1	100.1	97.1	98.1	100.8	103.5	101.3	106.5
